Data taken from PMC9181926, “Synthesis and Antiproliferative Activity of Novel Dehydroabietic Acid-Chalcone Hybrids” (Molecules, 2022).

Legend:
[1] = test system: MDA-MB-231 cells; experiment: Antiproliferation assay (cell counting, 48 h) in MDA-MB-231 breast cancer cells; assay type: cell-based, human
From the text: (§1) Regarding the different characteristics of the used breast cancer cell lines, we can notice that MDA-MB-231 and Hs578T are triple negative.
(§2) Primary skin normal fibroblasts were kindly provided by Prof. Emer.

[2] = test system: Hs578T cells; experiment: Antiproliferation assay (cell counting, 48 h) in Hs578T breast cancer cells; assay type: cell-based, human
From the text: as §1, §2

[3] = test system: MCF-7 cells; experiment: Antiproliferation assay (cell counting, 48 h) in MCF-7 breast cancer cells; assay type: cell-based, human
From the text: as §1, §2

[4] = test system: MDA-MB-231, MCF-7 and Hs578T breast cancer cell lines
Procedure: (§3) The antiproliferative activity of the synthesized DHA-chalcone hybrids 31–53 was evaluated using three characteristic breast carcinoma cell lines, MDA-MB-231, MCF-7, and Hs578T. For the sake of comparison, 5-FU, a widely used drug in clinical practice, was selected as positive control.
(§4) MCF-7 (ER-positive breast cancer cells, epithelial, low metastatic), MDA-MB-231, and Hs578T (triple negative breast cancer cells, mesenchymal, high metastatic) were obtained from American Type Culture Collection (ATCC) and cultured with DMEM high glucose/10% Fetal Bovine Serum (FBS) (supplied by Biosera). […] Cancer cells were seeded in 24 well plates (30,000 MCF-7 cells/well, 30.000 MDA-MB-231 cells/well, 25,000 Hs578T cells/well) and fibroblasts in 12 well plates (40,000 cells/well) and incubated in proper medium completed with 10% FBS for 48 h. Compounds were diluted in DMSO and working dilutions were prepared ranging from 5 to 200 μΜ for cancer cells and 1 to 100 μM for fibroblasts. All cells were incubated with working dilutions for 48 h. Afterwards, cells were detached by trypsinization, centrifuged at 3000 rpm for 3 min, and counted using a hemocytometer. Antiproliferation values were then calculated relatively to cancer or normal cells treated only with DMSO. […] IC50 values were calculated using GraphPad Prism 5 (Graph Pad Software).

[5] = test system: normal primary fibroblasts (FB); experiment: cells; assay type: cell-based, human; details: Fibroblast; normal primary human fibroblasts, 48 h incubation, cell counting
From the text: as §2

[6] = test system: MDA-MB-231, MCF-7 and Hs578T breast cancer cell lines; experiment: cells; details: Homo sapiens, read-out: IC50 against all the cancer cell lines
Procedure: as §3, §4

## COC(=O)[C@]1(C)CCC[C@]2(C)c3cc(O)c(C(=O)/C=C/c4cccnc4)cc3CCC12 (stereo partly drawn) [Compound 33, (1R,4aS)-methyl 6-hydroxy-1,4a-dimethyl-7-((E)-3-(pyridin-3-yl)acryloyl)-1,2,3,4,4a, 9,10,10a-octahydrophenanthrene-1-carboxylate]
[1]; FB IC50 relative to MDA-MB-231 IC50
  Selectivity Index for MDA-MB-231: 1.47
[1]; Homo sapiens, MDA-MB-231 cells, 48 h incubation, cell counting
  IC50: 5.89 ± 0.77 µM
[2]; FB IC50 relative to Hs578T IC50
  Selectivity Index for Hs578T: 3.50
[2]; Homo sapiens, Hs-578T, Hs578T cells, 48 h incubation, cell counting
  IC50: 2.48 ± 0.13 µM
[3]; FB IC50 relative to MCF-7 IC50
  Selectivity Index for MCF-7: 3.93
[3]; Homo sapiens, MCF7, MCF-7 cells, 48 h incubation, cell counting
  IC50: 2.21 ± 0.4 µM
[4]
  times less toxic than 5-FU (selectivity indices): 2.2-3 times
  times more active than 5-FU: 2.4-3.3 times
[5]
  IC50: 8.68 ± 0.88 µM
[6]
  IC50: 2.21 to 5.89 µM
